Assay results reported in patent US9752236B2, “Corrosion inhibitors” (Rhodia Operations, priority 2010, dated 2017).

What was measured:
[1] = Linear Polarisation Resistance (LPR) bubble test, corrosion inhibition under oilfield conditions; conditions: 20 ppm actives; 5% NaCl brine/Isopar M 9:1; 60° C.; constant CO2; 15 hours
Description: [formula] where baseline corrosion was calculated by taking the average corrosion rate of each cell before the corrosion inhibitors were introduced.
The same tests as described in Example 1 were carried out on the products set out in Table 3 below.

[2] = Static acid immersion test in 5% w/w HCl; conditions: 50° C., 24 hours, 2000 ppm w/w active inhibitor
Description: (§1) Static acid immersion tests were used to compare the corrosion inhibition performance of various sulfosuccinates in 5% w/w HCl to the industry standard propargyl alcohol (2-propyn-1-ol) and the corrosion inhibitor Stannine® ETH, which is a blend of amine salts and aliphatic alcohols and is available from Rhodia Novecare.
(§2) • A control solution of 5% w/w HCl was prepared by diluting 37% w/w HCl with deionised water. • An inhibited solution of 5% w/w HCl & 2000 ppm w/w active corrosion inhibitor was then prepared for each of the corrosion inhibitors being evaluated. Stannine® ETH was used at 2000 ppm w/w solids as the active content of Stannine® ETH is unknown. • Each solution was then split evenly between 2 Schott bottles (for duplicate runs) and a pre-weighed C1018 mild steel coupon was placed in each so that it was completely submerged. • The Schott bottles were then sealed tightly and stored for 24 hours in an oven set at 50° C. • After the allotted time the coupons were removed from the oven and cleaned using deionised water, HCl cleaning solution and acetone. The HCl cleaning solution had been made by dissolving 5 g SnCl2 and 2 g SbCl3 in 100 ml of 37% w/w HCl. • The coupons were then oven dried before re-weighing with the average weight change of the duplicate coupons being used to calculate the corrosion rate. The above process was then repeated using (a) 5% w/w H2SO4 and (b) 5% w/w acetic acid instead of HCl.

[3] = Static acid immersion test in 5% w/w H2SO4; conditions: 5% w/w H2SO4, 50° C., 24 hours, 2000 ppm w/w active inhibitor
Description: as §1, §2

[4] = Static acid immersion test in 5% w/w acetic acid; conditions: 50° C., 24 hours, 2000 ppm w/w active inhibitor
Description: as §1, §2

Molecule	corrosion rate (LPR), in words [1]	% Efficiency [2] [%]	Corrosion rate [2] [mils/y]	% Efficiency [3] [%]	Corrosion rate [3] [mils/y]	% Efficiency [4] [%]	Corrosion rate [4] [mils/y]	% Efficiency ([3]; listed as propargyl alcohol)
CCCCCCCC/C=C\CCCCCCCC(=O)NCCOC(=O)C(CC(=O)[O-])S(=O)(=O)[O-].[Na+].[Na+] (stereo not shown) [Disodium oleamido MEA sulfosuccinate]	significantly reduce corrosion rates, although they do not perform quite as well as the industry standard	88.0	171.5	65.2	669.3	56.7	60.7	–
C#CCO [Propargyl alcohol, 2-propyn-1-ol, reference compound]	–	–	9.5	18.0	1575.2	–	–	not performing well as an inhibitor in this environment
Disodium cocamido MIPA sulfosuccinate	significantly reduce the corrosion rate and have a performance very similar to the industry standard	–	–	–	–	–	–	–
Disodium laureth sulfosuccinate	significantly reduce the corrosion rate and have a performance very similar to the industry standard	–	–	–	–	–	–	–
Disodium oleamido MIPA sulfosuccinate	significantly reduce the corrosion rate and have a performance very similar to the industry standard	88.5	163.3	68.4	607.0	70.9	40.9	–
Disodium oleth 9 sulfosuccinate	significantly reduce corrosion rates, although they do not perform quite as well as the industry standard	–	–	–	–	–	–	–
Disodium ricinoleamido MEA sulfosuccinate	significantly reduce the corrosion rate and have a performance very similar to the industry standard	84.4	221.4	81.1	362.5	77.2	32.0	–
